Experimental data from the NIST ThermoML archive (doi:10.1021/acs.jced.6b00269).

Conditions: for viscosity / mass density: 101.33 kPa, Liquid; for viscosity: Cone and plate viscometry; for Normal melting temperature: Crystal, DTA; for mass density: Vibrating tube method; for Glass transition temperature: DSC

CCC=C[P+](CC)(CC)CC.O=[N+]([O-])c1cn[n-]c1 [(buten-1-yl)triethylphosphonium 4-nitropyrazolide]
Conditions	Normal melting temperature [°C]	viscosity [mPa·s]
–	39	–
298.15 K	–	134
303.15 K	–	102
308.15 K	–	79
313.15 K	–	63
318.15 K	–	52

CCCC[P+](CC)(CC)CC.Cc1ncc([N+](=O)[O-])[n-]1 [butyltriethylphosphonium 2-methyl-5-nitroimidazolide]
Conditions	Glass transition temperature [°C]	Normal melting temperature [°C]	mass density [kg/m3]	viscosity [mPa·s]
–	-71	17	–	–
278.15 K	–	–	–	2180
283.15 K	–	–	1074.4	1350
288.15 K	–	–	1071.3	858
293.15 K	–	–	1068.3	569
295.15 K	–	–	1067.1	–
298.15 K	–	–	1065.3	391
303.15 K	–	–	1062.3	277
308.15 K	–	–	1059.3	202
313.15 K	–	–	1056.5	150
318.15 K	–	–	1053.6	115
323.15 K	–	–	1050.7	90
328.15 K	–	–	1047.8	72
333.15 K	–	–	1044.9	58
338.15 K	–	–	1042.1	–
343.15 K	–	–	1039.2	–
348.15 K	–	–	1036.4	–
353.15 K	–	–	1033.5	–

CCCC[P+](CC)(CC)CC.O=[N+]([O-])c1cn[n-]c1 [butyltriethylphosphonium 4-nitropyrazolide]
Conditions	Normal melting temperature [°C]	mass density [kg/m3]	viscosity [mPa·s]
–	44	–	–
278.15 K	–	–	840
283.15 K	–	1087.9	551
288.15 K	–	1084.7	372
293.15 K	–	1081.5	261
295.15 K	–	1080.3	–
298.15 K	–	1078.4	189
303.15 K	–	1075.4	141
308.15 K	–	1072.4	108
313.15 K	–	1069.3	85
318.15 K	–	1066.3	67
323.15 K	–	1063.3	55
328.15 K	–	1060.3	–
333.15 K	–	1057.3	–
338.15 K	–	1054.3	–
343.15 K	–	1051.3	–
348.15 K	–	1048.4	–
353.15 K	–	1045.4	–

CC[P+](CC)(CC)C1CCCC1.O=[N+]([O-])c1cn[n-]c1 [cyclopentyltriethylphosphonium 4-nitropyrazolide]
Conditions	Normal melting temperature [°C]
–	51

CCCCCCCCCC[P+](CC)(CC)CC.O=[N+]([O-])c1cn[n-]c1 [decyltriethylphosphonium 4-nitropyrazolide]
Conditions	Glass transition temperature [°C]	Normal melting temperature [°C]	mass density [kg/m3]	viscosity [mPa·s]
–	-71	11	–	–
278.15 K	–	–	–	1620
283.15 K	–	–	1020	1030
288.15 K	–	–	1017	678
293.15 K	–	–	1013.9	461
295.15 K	–	–	1012.7	–
298.15 K	–	–	1010.9	325
303.15 K	–	–	1007.9	236
308.15 K	–	–	1004.9	175
313.15 K	–	–	1002	133
318.15 K	–	–	999.1	104
323.15 K	–	–	996.2	82
328.15 K	–	–	993.3	66
333.15 K	–	–	990.4	54
338.15 K	–	–	987.5	–
343.15 K	–	–	984.6	–
348.15 K	–	–	981.7	–
353.15 K	–	–	978.8	–

CCCCCCC[P+](CC)(CC)CC.O=[N+]([O-])c1cn[n-]c1 [triethylheptylphosphonium 4-nitropyrazolide]
Conditions	Glass transition temperature [°C]	Normal melting temperature [°C]	mass density [kg/m3]	viscosity [mPa·s]
–	-72	16	–	–
278.15 K	–	–	–	1000
283.15 K	–	–	1047.1	657
288.15 K	–	–	1044	443
293.15 K	–	–	1040.9	309
295.15 K	–	–	1039.7	–
298.15 K	–	–	1037.8	223
303.15 K	–	–	1034.8	165
308.15 K	–	–	1031.8	126
313.15 K	–	–	1028.8	97
318.15 K	–	–	1026	77
323.15 K	–	–	1023.1	62
328.15 K	–	–	1020.2	–
333.15 K	–	–	1017.3	–
338.15 K	–	–	1014.5	–
343.15 K	–	–	1011.6	–
348.15 K	–	–	1008.8	–
353.15 K	–	–	1006	–

CCCCCCCCC[P+](CC)(CC)CC.O=[N+]([O-])c1cn[n-]c1 [triethylnonylphosphonium 4-nitropyrazolide]
Conditions	Glass transition temperature [°C]	Normal melting temperature [°C]	mass density [kg/m3]	viscosity [mPa·s]
–	-72	16	–	–
278.15 K	–	–	–	1370
283.15 K	–	–	1031	888
288.15 K	–	–	1027.9	593
293.15 K	–	–	1024.9	409
295.15 K	–	–	1023.6	–
298.15 K	–	–	1021.8	291
303.15 K	–	–	1018.8	213
308.15 K	–	–	1015.8	160
313.15 K	–	–	1012.9	123
318.15 K	–	–	1009.9	96
323.15 K	–	–	1007	77
328.15 K	–	–	1004	63
333.15 K	–	–	1001.1	52
338.15 K	–	–	998.2	–
343.15 K	–	–	995.3	–
348.15 K	–	–	992.4	–
353.15 K	–	–	989.5	–

CCCCCCCC[P+](CC)(CC)CC.Cc1ncc([N+](=O)[O-])[n-]1 [triethyloctylphosphonium 2-methyl-5-nitroimidazolide]
Conditions	Glass transition temperature [°C]	mass density [kg/m3]	viscosity [mPa·s]
–	-67	–	–
278.15 K	–	–	3720
283.15 K	–	1037.8	2280
288.15 K	–	1034.6	1440
293.15 K	–	1031.5	940
295.15 K	–	1030.3	–
298.15 K	–	1028.6	637
303.15 K	–	1025.6	446
308.15 K	–	1022.7	321
313.15 K	–	1019.8	237
318.15 K	–	1016.9	179
323.15 K	–	1014.1	138
328.15 K	–	1011.2	109
333.15 K	–	1008.4	80
338.15 K	–	1005.6	–
343.15 K	–	1002.7	–
348.15 K	–	999.9	–
353.15 K	–	997.1	–
